The values below come from patent US9101148B2, “Carbohydrate modifying agent and drinks containing the modifying agent” (SBS Food Group LLC, priority 2001, dated 2015).

The test system of this test is mutans streptococci. As to the kind of experiment: Inhibition of growth and adherence of mutans streptococci in vitro by zinc salts. The format is cell-based. The settings on record: 0.5% zinc solution. From the text:
In another preferred embodiment of the invention, the formulation includes one or more zinc salt or other source of the zinc ion. Metabolically, zinc is a critical nutrient in the synthesis of insulin and the metabolism of carbohydrates. From a dental perspective, cariogenic bacteria enzymatically produce an insoluble glucan deposit from simple sugars present in the mouth that firmly adheres to the enamel tooth surface.

As to `[Cl-].[Cl-].[Zn+2]` [zinc chloride], the “adherence of mutans streptococci” value was “inhibited” and the “growth of mutans streptococci” value is given as “inhibited”.

On to zinc ascorbate, for which the “adherence of mutans streptococci” value is given as “inhibited” and the “growth of mutans streptococci” value is recorded as “inhibited”.
